Assays:
Format in all cases: cell-based, human
[1] = tested on: matrix metalloprotease 2 (MMP2) mRNA; test: MMP2 mRNA expression in HaCaT cells contacted with test substance, quantitative PCR; conditions: 1 μM, 10 μM and 100 μM, HaCaT cells, 24 hours
Method: In this experiment, the effect of Fraglide-1 on the expression of MMP9 in the level of mRNA was examined first. Specifically, HaCaT cells were treated with Fraglide-1 in the same manner as described in Experiment 3-1 except that HaCaT cells were incubated for 24 hours in the medium containing 0 μM, 1 μM, 10 μM, and 100 μM of Fraglide-1 instead of being incubated for 24 hours in the medium containing both FICZ and Fraglide-1. The total RNA was then extracted, cDNA was prepared, and the quantitative PCR was performed using the obtained cDNA. Herein, the procedure of the quantitative PCR was the same as described in Experiment 3-1 except that the primers shown in below Table 4 were used. In this experiment, the expression of MMP2 mRNA was also quantified in addition to MMP9 mRNA. MMP2 is known as a MMP which is not transcriptionally regulated by a xenobiotic responsive element (XRE). […]
Next, experiments were performed to inhibit MMP9 and MMP2 in HaCaT cells using retinoic acid (CAS RN: 302-79-4) and nicotinamide (CAS RN: 98-92-0), which are known to be substances having anti-wrinkle effect. […] Then, the total RNA was extracted, cDNA was prepared, and the quantitative PCR was carried out using the obtained cDNA. […]

[2] = tested on: xenobiotic responsive element (XRE); test: Screening: inhibition of FICZ-triggered reporter protein expression in XRE-NLuc::HaCaT cells; conditions: FICZ 5,000 nM, 24 hours
Method: First, in the same manner as in Experiment 1-2, XRE-NLuc::HaCaT cells were suspended in a DMEM medium at the density of 1×10^5 cell/mL, and 100 μL of the thus obtained suspension was added to each well of white 96-well plates (Thermo Fisher Scientific, MA, U.S.A.; Catalogue No.: 136102) so that a number of the cells in each well was 10,000 cells/well. In accordance with the conventional method, the cells were incubated for 24 hours at 37° C. and 5% CO2. Thereafter, the DMEM medium was removed, and 100 μL of a new DMEM medium containing […] of FICZ, which was confirmed to activate the expression of the reporter protein in Experiment 1-2, and a candidate substance at a predetermined concentration. Meanwhile, reference samples were also prepared by adding 100 μL of a DMEM medium containing 5,000 nM of FICZ but not containing candidate substances. In this experiment, 5-hydroxy-4-phenyl-2(5H)butenolide (hereinafter also referred to as “Fraglide-1” or “FG1”) and, as a positive control, cinnamaldehyde, which is known to have an effect of inhibiting a foreign body reaction in which a xenobiotic responsive element (XRE) is involved, were used as test substances. After incubation for 24 hours at 37° C. and 5% CO2, the expression level of the reporter protein (luminescence intensity) and the viable cell count were measured in accordance with the method described in Experiment 1-2, and the expression of the reporter protein per unit number of viable cells was obtained. The inhibition rate (Inhibition (%)) of the expression of the reporter protein exerted by each candidate substance was calculated in accordance with the following formula.
In the above formula, (Reporter Expression)FICZ indicates the expression of the reporter protein per unit number of viable cells obtained from the reference samples: i.e., the cells incubated in the medium containing 5,000 nM of FICZ but not containing candidate substances. Meanwhile, (Reporter Expression)FICZ+TEST SAMPLE indicates the expression of the reporter protein per unit number of viable cells obtained from the cells incubated in the medium containing 5,000 nM of FICZ and a candidate substance. The results shown in FIG. 6 were the mean obtained from three independent experiments. The error bars represent the standard error (SE).

[3] = tested on: TIMP-1 (Tissue Inhibitor of Matrix Metalloprotease-1) mRNA; test: TIMP-1 mRNA expression in HaCaT cells, quantitative PCR; conditions: 100 μM, 24 hours
Method: Specifically, the mRNA expression of TIMP-1 in the HaCaT cells treated with Fraglide-1 was evaluated by performing quantitative PCR using cDNA obtained in Experiment 4-1. The procedure of quantitative PCR was the same as described in Experiment 4-1 except that the primers shown in below Table 5 were used.
In FIG. 14, the results obtained for each sample were shown in relative values normalized by setting the expression level of TIMP-1 in the HaCaT cells incubated for 24 hours in DMEM medium not containing Fraglide-1 (i.e., the non-treated HaCaT cells) as 1. The results shown in FIG. 14 are the mean of values obtained from three independent experiments, and the error bars represent standard deviation (SD).
On the other hand, as comparison, the similar evaluation was performed for retinoic acid and nicotinamide, which are known as active ingredients of anti-wrinkle agents, using cDNA obtained in Experiment 4-2. The procedure for quantitative PCR was the same as already described in Experiment 3-1, except that the primers shown in Table 5 were used.
In FIG. 15, the results obtained for each sample were shown in relative values normalized by setting the expression level of TIMP-1 in the HaCaT cells incubated for 24 hours in DMEM medium not containing either retinoic acid and nicotinic acid amide (i.e., the non-treated HaCaT cells) as 1. The results shown in FIG. 15 are the mean of values obtained from three independent experiments, and the error bars represent standard deviation (SD).

O=C1C=C(c2ccccc2)C(O)O1 (stereo not drawn) [Fraglide-1, 5-hydroxy-4-phenyl-2(5H)butenolide]
MMP2 mRNA expression [1]: no decrease in the mRNA expression was observed
Inhibition (%) of expression of the reporter protein triggered by FICZ ([2]; 12.5 μM test substance): 58%
Inhibition (%) of expression of the reporter protein triggered by FICZ ([2]; 25 μM test substance): 68%
Inhibition (%) of expression of the reporter protein triggered by FICZ ([2]; 50 μM test substance): 83%
expression level of TIMP-1 compared to non-treated HaCaT cells [3]: about 4 fold
expression level of TIMP-1 mRNA vs non-treated HaCaT cells (in words) ([3]; Fraglide-1 1 μM, 10 μM, retinoic acid / nicotinic acid amide at predetermined concentrations): concentration-dependent increase

Reference: patent US20240285497A1, “METHOD FOR EVALUATING AN ABILITY OF A TEST SAMPLE TO TRIGGER A FOREIGN BODY REACTION IN THE SKIN, A METHOD FOR SCREENING A SUBSTANCE HAVING AN ABILITY TO INHIBIT A FOREIGN BODY REACTION IN THE SKIN, AND AN AGENT FOR INHIBITING A FOREIGN BODY REACTION IN THE SKIN” (priority 2021, published 2024)
